Experimental data: patent publication US7670800B2, “Process for the purification of riboflavin” (DSM IP Assets B.V., priority 2003, dated 2010)
One block for each compound: values may come before it.

How the values were obtained:
[1] = Supersaturation / spontaneous crystallisation in fermentation solution (heat flow calorimeter, turbidity sensor; MethB); format: physicochemical
Description: Within the temperature range of 44° C. to 52° C. the solubility of riboflavin dihydrate and within the temperature range of 44° C. to 59° C. the spontaneous crystallization of riboflavin were investigated. […] In another experiment riboflavin was dissolved at a concentration of 0.7 g l^−1 and at a temperature of 69° C.
The experiments were conducted in a heat flow calorimeter. The process of […] by heating and crystallisation by cooling was monitored by a turbidity sensor. 36 mg of crystals of riboflavin anhydrate I or 60 mg of the crystalline form of riboflavin monohydrate or 120 mg of crystals of riboflavin dihydrate, respectively, were suspended in the fermentation solution and heated to 80° C. at a rate of 0.1° C. per minute. The temperature was held during 60 min. Then the system was cooled again to 20° C. at a rate of 0.1° C./min.
Therefore, another method (MethB) was applied to determine the supersaturation at 39° C.: 420 mg of crystals of riboflavin tetrahydrate were suspended and fully dissolved by heating to 69° C. The concentration of riboflavin was 0.6 mg ml^−1. After cooling again to 39° C., the temperature was kept constant.

[2] = not given; remark: listed apart in the source
[3] = Soluble fraction of riboflavin in induced and uninduced cultures; format: physicochemical; conditions: fermentation culture induced with seed crystals
Description: 500 mg of crystals of riboflavin monohydrate were sterilized at 140° C. for 50 min in an oven, suspended in 5 ml ethanol for 10-200 min, preferably 20-40 min and prior induction 10 ml sterile H2O were added for better handling of the liquid. The suspension was added to the bioreactor after 6 h by a sterile bottle with needle. Crystals of riboflavin dihydrate were formed and in the culture remained monoseptic. From these experiments, it can be concluded that it is possible to direct the crystal modification to riboflavin dihydrate.
In case of the induced cultures this phenomenon is not observed. The solubility of riboflavin (approximately 0.4 gl^−1) is not exceeded. It is controlled by x-ray diffraction whether the crystalline form of the crystals changes during the sterilization procedure.

[4] = relative humidity of 95%, samples prepared by method of U.S. Pat. No. 2,603,633
Text: A process for the preparation of riboflavin tetrahydrate is described in U.S. Pat. No. 2,603,633. The process basically uses a solvent to rapidly precipitate the riboflavin in order to obtain the desired tetrahydrate “type C” (modification).

range of relative humidity in which the crystalline form was identified (second sample (type C), DVS): 0% < RH % RH
SMILES: Cc1cc2nc3c(=O)[nH]c(=O)nc-3n(C[C@H](O)[C@H](O)[C@H](O)CO)c2cc1C [riboflavin anhydrate III]

range of relative humidity at which the crystalline form appeared (sample modification B/C, DVS with parallel X-ray diffraction, ambient temperature): 0% RH
SMILES: Cc1cc2nc3c(=O)[nH]c(=O)nc-3n(C[C@H](O)[C@H](O)[C@H](O)CO)c2cc1C [riboflavin anhydrate II]

position of the supersaturation line ([1]; 39° C., estimated): above 0.6 g l^−1
partial transformation into riboflavin dihydrate ([2]; stirred slurry only containing riboflavin anhydrate I, 4° C., in 56 days): 80%
SMILES: Cc1cc2nc3c(=O)[nH]c(=O)nc-3n(C[C@H](O)[C@H](O)[C@H](O)CO)c2cc1C [riboflavin anhydrate I, reference compound]

time for complete transformation into riboflavin anhydrate I ([2]; 80° C.): ≤ 20 s
partial transformation into riboflavin anhydrate I ([2]; stirred slurry of pure riboflavin dihydrate, 23° C., in 11 days, Raman spectroscopy): 80%
water contained in the dihydrate structure (relative humidity of 20%, decreasing RH): about 1.3 mol water per mol riboflavin
water uptake (relative humidity of about 92%, increasing RH, ambient temperature, sample B/C): 9.57 wt.-%
SMILES: Cc1cc2nc3c(=O)[nH]c(=O)nc-3n(C[C@H](O)[C@H](O)[C@H](O)CO)c2cc1C [riboflavin dihydrate]

supersaturation line ([1]; 39° C., MethB, concluded from the experiments): below 0.6 mg ml^−1
solubility of riboflavin [3]: approximately 0.4 gl^−1
SMILES: Cc1cc2nc3c(=O)[nH]c(=O)nc-3n(C[C@H](O)[C@H](O)[C@H](O)CO)c2cc1C [riboflavin]

time until crystallisation started ([1]; 0.6 mg ml^−1 riboflavin, dissolved at 69° C., cooled to and kept at 39° C.): 3 h
temperature of spontaneous crystallisation ([1]; 0.7 mg ml^−1, dissolved at 69° C., cooling): 46 °C
time to transform into riboflavin dihydrate [4]: about 100 min
SMILES: Cc1cc2nc3c(=O)[nH]c(=O)nc-3n(C[C@H](O)[C@H](O)[C@H](O)CO)c2cc1C.O.O.O.O [riboflavin tetrahydrate]
